Measured values published in the CheMixHub viscosity set.

Assay: xn = mol fraction of the nth substance listed

CCCCC + CC(C)(C)O
viscosity [mPa·s], 101 kPa
Settings | x1 = 0.1023 | x1 = 0.2048 | x1 = 0.3056 | x1 = 0.407 | x1 = 0.5068 | x1 = 0.606 | x1 = 0.7043 | x1 = 0.8042 | x1 = 0.902
293.15 K | 1.891 | 1.128 | 0.88 | 0.771 | 0.657 | 0.485 | 0.373 | 0.32 | 0.281
303.15 K | 1.992 | 1.162 | 1.011 | 1.064 | 0.954 | 0.769 | 0.616 | 0.49 | 0.36
313.15 K | 1.996 | 1.211 | 1.298 | 1.282 | 1.182 | 1.012 | 0.832 | 0.625 | 0.455

CCCCC + CCCCCCCCCC
viscosity [mPa·s]
Settings | x1 = 0.1031 | x1 = 0.2082 | x1 = 0.3062 | x1 = 0.408 | x1 = 0.5061 | x1 = 0.6029 | x1 = 0.7058 | x1 = 0.804 | x1 = 0.9008
297.95 K, 101 kPa | 0.7711 | 0.6992 | 0.6136 | 0.5536 | 0.4708 | 0.4339 | 0.3667 | 0.32 | 0.2645
298.15 K, 101.33 kPa | 0.7775 | 0.6969 | 0.6169 | 0.5449 | 0.4818 | 0.4285 | 0.3626 | 0.3143 | 0.2671
313.05 K, 101 kPa | 0.6585 | 0.5949 | 0.5183 | 0.4627 | 0.4237 | 0.3644 | 0.3189 | 0.2801 | 0.2396

O=C(O)C=Cc1ccccc1 + CCCO
viscosity [mPa·s]
Settings | 308.15 K | 313.15 K | 318.15 K | 323.15 K
101 kPa, x1 = 0.0687 | 2.066 | – | – | –
101 kPa, x1 = 0.0901 | 2.224 | – | – | –
101 kPa, x1 = 0.109 | 2.44 | – | – | –
101.33 kPa, x1 = 0.0687 | 2.066 | 1.836 | 1.629 | 1.452
101.33 kPa, x1 = 0.109 | 2.44 | 2.158 | 1.888 | 1.683

CC(=O)CC(C)(C)O + CC(C)O
viscosity [mPa·s], 100 kPa
Settings | x2 = 0.1 | x2 = 0.2 | x2 = 0.3 | x2 = 0.4 | x2 = 0.5 | x2 = 0.6 | x2 = 0.7 | x2 = 0.8 | x2 = 0.9
303.15 K | 2.39 | 2.29 | 2.19 | 2.09 | 2 | 1.91 | 1.84 | 1.78 | 1.75
323.15 K | 1.5 | 1.43 | 1.36 | 1.29 | 1.23 | 1.18 | 1.12 | 1.08 | 1.04

CS(C)=O + CCO
Settings | viscosity [mPa·s]
293.15 K, 100 kPa, x2 = 0.08 | 2.021
293.15 K, 100 kPa, x2 = 0.16 | 1.873
293.15 K, 100 kPa, x2 = 0.23 | 1.756
293.15 K, 100 kPa, x2 = 0.3 | 1.666
293.15 K, 100 kPa, x2 = 0.36 | 1.572
298.15 K, 100 kPa, x2 = 0.08 | 1.828
298.15 K, 100 kPa, x2 = 0.16 | 1.701
298.15 K, 100 kPa, x2 = 0.23 | 1.598
298.15 K, 100 kPa, x2 = 0.3 | 1.517
298.15 K, 100 kPa, x2 = 0.36 | 1.436
298.15 K, 101 kPa, x1 = 0.061 | 1.182
298.15 K, 101 kPa, x1 = 0.2 | 1.291
298.15 K, 101 kPa, x1 = 0.37 | 1.466
298.15 K, 101.3 kPa, x1 = 0.0616 | 1.015
298.15 K, 101.3 kPa, x1 = 0.1286 | 1.021
298.15 K, 101.3 kPa, x1 = 0.2019 | 1.022
298.15 K, 101.3 kPa, x1 = 0.2801 | 1.056
298.15 K, 101.3 kPa, x1 = 0.3708 | 1.114
298.15 K, 101.3 kPa, x1 = 0.4693 | 1.187
298.15 K, 101.3 kPa, x1 = 0.5814 | 1.298
298.15 K, 101.3 kPa, x1 = 0.7023 | 1.454
298.15 K, 101.3 kPa, x1 = 0.7609 | 1.538
298.15 K, 101.3 kPa, x1 = 0.8414 | 1.657
298.15 K, 101.3 kPa, x1 = 0.933 | 1.851
298.15 K, 101.31 kPa, x1 = 0.1026 | 1.034
298.15 K, 101.31 kPa, x1 = 0.1971 | 1.029
298.15 K, 101.31 kPa, x1 = 0.2892 | 1.061
298.15 K, 101.31 kPa, x1 = 0.4043 | 1.137
298.15 K, 101.31 kPa, x1 = 0.5029 | 1.234
298.15 K, 101.31 kPa, x1 = 0.62 | 1.352
298.15 K, 101.31 kPa, x1 = 0.7117 | 1.491
298.15 K, 101.31 kPa, x1 = 0.8036 | 1.634
298.15 K, 101.31 kPa, x1 = 0.9017 | 1.807
299 K, 101 kPa, x1 = 0.0519 | 1.711
299 K, 101 kPa, x1 = 0.1593 | 1.696
299 K, 101 kPa, x1 = 0.3301 | 1.895
299 K, 101 kPa, x1 = 0.451 | 2.099
299 K, 101 kPa, x1 = 0.5779 | 2.34
299 K, 101 kPa, x1 = 0.7807 | 2.572
303.15 K, 100 kPa, x2 = 0.16 | 1.552
303.15 K, 100 kPa, x2 = 0.3 | 1.39
303.15 K, 100 kPa, x2 = 0.36 | 1.317
303.15 K, 101 kPa, x1 = 0.2 | 1.191
303.15 K, 101 kPa, x1 = 0.2004 | 1.205
303.15 K, 101 kPa, x1 = 0.37 | 1.366
303.15 K, 101.3 kPa, x1 = 0.0616 | 0.966
303.15 K, 101.3 kPa, x1 = 0.1286 | 0.932
303.15 K, 101.3 kPa, x1 = 0.2019 | 0.884
303.15 K, 101.3 kPa, x1 = 0.2801 | 0.904
303.15 K, 101.3 kPa, x1 = 0.3708 | 0.938
303.15 K, 101.3 kPa, x1 = 0.4693 | 1.064
303.15 K, 101.3 kPa, x1 = 0.5814 | 1.201
303.15 K, 101.3 kPa, x1 = 0.7023 | 1.354
303.15 K, 101.3 kPa, x1 = 0.7609 | 1.481
303.15 K, 101.3 kPa, x1 = 0.933 | 1.685
308.15 K, 100 kPa, x2 = 0.16 | 1.426
308.15 K, 100 kPa, x2 = 0.3 | 1.28
308.15 K, 100 kPa, x2 = 0.36 | 1.213
308.15 K, 101 kPa, x1 = 0.061 | 1.002
308.15 K, 101 kPa, x1 = 0.2 | 1.091
308.15 K, 101 kPa, x1 = 0.37 | 1.266
308.15 K, 101.31 kPa, x1 = 0.1026 | 0.882
308.15 K, 101.31 kPa, x1 = 0.1971 | 0.893
308.15 K, 101.31 kPa, x1 = 0.2892 | 0.916
308.15 K, 101.31 kPa, x1 = 0.4043 | 0.981
308.15 K, 101.31 kPa, x1 = 0.5029 | 1.056
308.15 K, 101.31 kPa, x1 = 0.62 | 1.159
308.15 K, 101.31 kPa, x1 = 0.7117 | 1.26
308.15 K, 101.31 kPa, x1 = 0.8036 | 1.375
308.15 K, 101.31 kPa, x1 = 0.9017 | 1.511
313.15 K, 100 kPa, x2 = 0.08 | 1.402
313.15 K, 100 kPa, x2 = 0.16 | 1.312
313.15 K, 100 kPa, x2 = 0.23 | 1.237
313.15 K, 100 kPa, x2 = 0.3 | 1.181
313.15 K, 100 kPa, x2 = 0.36 | 1.121
318.15 K, 101.31 kPa, x1 = 0.1026 | 0.745
318.15 K, 101.31 kPa, x1 = 0.1971 | 0.753
318.15 K, 101.31 kPa, x1 = 0.2892 | 0.782
318.15 K, 101.31 kPa, x1 = 0.4043 | 0.835
318.15 K, 101.31 kPa, x1 = 0.5029 | 0.908
318.15 K, 101.31 kPa, x1 = 0.62 | 0.994
318.15 K, 101.31 kPa, x1 = 0.7117 | 1.067
318.15 K, 101.31 kPa, x1 = 0.8036 | 1.171
318.15 K, 101.31 kPa, x1 = 0.9017 | 1.28
323.15 K, 101 kPa, x1 = 0.8011 | 1.125

CS(C)=O + CCCCO
viscosity [mPa·s]
Settings | 298.15 K | 303.15 K
101 kPa, x1 = 0.09862 | – | 1.847
101 kPa, x1 = 0.1941 | – | 1.698
101 kPa, x1 = 0.2035 | – | 1.685
101 kPa, x1 = 0.3043 | – | 1.581
101 kPa, x1 = 0.3691 | – | 1.528
101 kPa, x1 = 0.3883 | – | 1.55
101 kPa, x1 = 0.4941 | – | 1.534
101 kPa, x1 = 0.5276 | – | 1.497
101 kPa, x1 = 0.5875 | – | 1.564
101 kPa, x1 = 0.6718 | – | 1.506
101 kPa, x1 = 0.6844 | – | 1.605
101 kPa, x1 = 0.803 | – | 1.636
101 kPa, x1 = 0.8037 | – | 1.543
101 kPa, x1 = 0.9005 | – | 1.682
101 kPa, x1 = 0.9297 | – | 1.672
101.3 kPa, x1 = 0.0944 | 2.225 | 1.97
101.3 kPa, x1 = 0.192 | 2.017 | 1.848
101.3 kPa, x1 = 0.2893 | 1.88 | 1.671
101.3 kPa, x1 = 0.3876 | 1.78 | 1.604
101.3 kPa, x1 = 0.4688 | 1.773 | 1.59
101.3 kPa, x1 = 0.5874 | 1.77 | 1.599
101.3 kPa, x1 = 0.6887 | 1.796 | 1.625
101.3 kPa, x1 = 0.7915 | 1.859 | 1.668
101.3 kPa, x1 = 0.8839 | 1.905 | 1.723

CC(C)CC(C)O (stereo not given) + CO
298.15 K, 101.33 kPa
Settings | viscosity [mPa·s]
x2 = 0.1191 | 3.504
x2 = 0.2078 | 3.263
x2 = 0.3157 | 2.847
x2 = 0.4359 | 2.297
x2 = 0.5125 | 1.958
x2 = 0.6519 | 1.459
x2 = 0.7023 | 1.297
x2 = 0.8038 | 1.002
x2 = 0.9042 | 0.7423
